Values quoted from earlier work, collected in patent US20260263387A1, “INTRANASAL EPINEPHRINE FORMULATIONS AND METHODS OF USE” (ARS Pharmaceuticals Operations, Inc., priority 2024, published 2026).

blood level of epinephrine (intranasal dose level of 2.5 mg and below (0.3 mg, 0.6 mg, 1.25 mg, or 2.5 mg)): no blood level
significant systemic absorption of epinephrine via the IN route (intranasal, Srisawat): observed only at 5 mg
Compound: CNC[C@H](O)c1ccc(O)c(O)c1 [epinephrine, (R)-4-(1-Hydroxy-2-(methylamino)ethyl)benzene-1,2-diol]
